Data published in patent US8865741B2, “Aminoindane compounds and use thereof in treating pain” (Asana Biosciences, LLC, priority 2011, dated 2014).

Tested on: sodium channel in hTRPV1-N1E115 cells
Experiment: FLIPR membrane potential assay of sodium channel response in hTRPV1-N1E115 cells, with (47° C.) or without (25° C.) heat activation of hTRPV1
Type: cell-based
Settings: for hTRPV1-N1E Nav 0.1 mM (% inhibition) 25° C. / hTRPV1-N1E Nav 1 mM (% inhibition) 25° C.: 25° C. (no heat activation of hTRPV1); for hTRPV1-N1E Nav 0.1 mM (% inhibition) 47° C. / hTRPV1-N1E Nav 1 mM (% inhibition) 47° C.: 47° C. (heat activation of hTRPV1); for IC50: class symbols, read-out: hTRPV1-N1E IC50 (μM) 47° C.
Text: In one embodiment, a modified FLIPR® (Fluorometric Imaging Plate Reader) based assay system was developed which is capable of discriminating between non-specific versus hTRPV1-mediated entry of test compounds. Advantageously, the assay system utilizes heat activated opening of hTRPV1 channels followed by an assessment of internal sodium channel block. The assay allows a permanently charged compound to selectively enter through opened hTRPV1 channels and that compound's potency in inhibiting sodium channels from the cytoplasm side of the same cell can be assessed and quantified.
The assay is readily performed in multi-well assay plates into which cells in growth media are added and incubated under conditions which permit the formation of a confluent monolayer over a period of hours prior to the start of the assay. Conventional culture media and conditions may be utilized. Duplicate cell assay plates are prepared for each experiment.
The spent media from the cell seeded plates is removed on the day of the assay and replaced with Membrane potential Dye-Blue (Molecular Devices). The dye was prepared in assay buffer following manufacturer's instructions. The dye-loaded plate is incubated at room temperature (about 25° C.) for about 30 minutes in order to pre-load the cells with dye. Optionally, the cells may be loaded with the dye simultaneously with adding the test compounds.
The test compounds are diluted in the Assay Buffer and added to each well of a specific 384-well ‘compound plate’, which serves as a source plate for compound addition using the FLIPR® platform. The concentration of compounds in the compound-plate was adjusted to achieve the desired final concentration when added to the cells in the ‘cell-plate’. After completion of the dye incubation period, the dye loaded cell-plates and the compound source plates are inserted into the FLIPR® Tetra™ device with a 384 FLIPR® tip box (Molecular Devices, Inc.) according to manufacturer's instructions. The compounds are robotically added to the dye loaded cell-plates using software integral to the FLIPR® Tetra™ instrument.
Immediately following compound addition, hTRPV1 is activated, in one of the duplicate cell plates, by heating. Specifically, entire multi-well plate containing the compound-cells mixture is incubated at 47° C. for 10 minutes, after which they are returned to room temperature (about 25° C.) for a further 30 minutes. Heat activation of hTRPV1 was omitted from the replicate cell plate which was simply maintained at room temperature for the entire 40 minutes.
A membrane potential response is elicited in the dye- and compound-loaded cells by the addition of veratridine which is a known sodium channel ‘agonist’. As illustrated in an example herein, an agonist plate containing veratridine (Sigma) is prepared in advance and is inserted into suitable devices such as, e.g., the FLIPR® TETRA® device for a “2nd addition” as instructed by the manufacturer. The concentration of veratridine in the ‘agonist plate’ was adjusted to achieve a final concentration of 100 μM when added to the cells in the cell-plate. Final concentrations of veratridine greater or lesser than 100 μM may also be used but the signal measured by the FLIPR®^Tetra™ device or another suitable device may vary accordingly.
The exposure of the cells in the cell-plate to veratridine induces sodium channels in the cells to open and the resulting ion flux produces a membrane potential depolarization that is detected as a fluorescence signal by the FLIPR® ^Tetra™ Device. The activity of test compounds is determined by their ability to attenuate the veratridine-induced fluorescence signal, the most promising compounds are those that show an enhanced activity in the heat-activated cell plate over the non-heat-activated cell plate. […]

Compound | hTRPV1-N1E Nav 0.1 mM (% inhibition) 25° C. (0.1 mM) [%] | hTRPV1-N1E Nav 0.1 mM (% inhibition) 47° C. (0.1 mM) | IC50 (47° C.) [µM] | hTRPV1-N1E Nav 1 mM (% inhibition) 25° C. | hTRPV1-N1E Nav 1 mM (% inhibition) 47° C. | hTRPV1-N1E Nav 0.1 mM (% inhibition) 25° C., DMSO (0.1 mM, DMSO, 25° C.) [%] | hTRPV1-N1E Nav 0.1 mM (% inhibition) 47° C., DMSO (0.1 mM, DMSO, 47° C.)
Cc1ccccc1N(CCC1CCCC[N+]1(CCO)CCO)C1Cc2ccccc2C1.[Br-] (stereo not shown) [Example 46, 1,1-Bis(2-hydroxyethyl)-2-[2-((indan-2-yl)(2-methylphenyl)amino)ethyl]piperidinium bromide] | 31.8 | 94.4 (N = 2) % | 10 to 100 | – | – | – | –
CC[N+]1(CC)CCCCC1CN(c1ccccc1)C1Cc2ccccc2C1.[I-] (stereo not shown) [Example 13, 1,1-Diethyl-2-[((indan-2-yl)(phenyl)amino)methyl]piperidinium iodide] | 67 | 99 (N = 2) % | 10 to 100 | 64 (N = 2) % | 92 (N = 2) % | – | –
C[N+]1(C)CCCCC1CCN(c1ccc(F)cc1)C1Cc2ccccc2C1.[I-] (stereo not shown) [Example 15, 1,1-Dimethyl-2-[2-((4-fluorophenyl)(indan-2-yl)amino)ethyl]piperidinium iodide] | 2.8 | 75.2 (N = 3) % | 10 to 100 | 0.7 (N = 3) % | 35.0 (N = 3) % | – | –
C[N+]1(C)CCCCC1CN(c1ccc(F)cc1)C1Cc2ccccc2C1.[I-] (stereo not shown) [Example 28, 1,1-Dimethyl-2-[((4-fluorophenyl)(indan-2-yl)amino)methyl]piperidinium iodide] | 30.2 | 43.7 (N = 2) % | – | 61.8 (N = 2) % | 86.6 (N = 2) % | – | –
C[N+]1(C)CCCCC1CCCN(c1ccccc1)C1Cc2ccccc2C1.[I-] (stereo not shown) [Example 7] | 27.3 | 57.9 (N = 2) % | 10 to 100 | Insoluble | Insoluble | – | –
CC[N+]1(CC)CCCCC1CCCN(c1ccccc1)C1Cc2ccccc2C1.[I-] (stereo not shown) [Example 26, 1,1-Diethyl-2-[3-((indan-2-yl)(phenyl)amino)propyl]piperidinium iodide] | 44.6 | 64.7 (N = 2) % | 10 to 100 | Insoluble | Insoluble | – | –
Cc1ccccc1N(CCC1CCCC[N+]1(C)C)C1Cc2ccccc2C1 (stereo not shown) [Example 52, 1,1-Dimethyl-2-[2-((indan-2-yl)(2-methylphenyl)amino)ethyl]piperidinium bromide] | – | – | 10 to 100 | – | – | – | –
CC[N+]1(CC)CCCC1CCN(c1ccccc1)C1Cc2ccccc2C1.[I-] (stereo not shown) [Example 36, 1,1-diethyl-2-[2-((indan-2-yl)(phenyl)amino)ethyl]pyrrolidinium iodide] | 5.4 | 74.0 (N = 2) % | 10 to 100 | – | – | – | –
Cc1ccc(N(CC2CCCC[N+]2(C)C)C2Cc3ccccc3C2)cc1.[I-] (stereo not shown) [Example 27, 1,1-Dimethyl-2-[((indan-2-yl)(4-methylphenyl)amino)methyl]piperidinium iodide] | 68.1 | 81.3 (N = 2) % | – | 61.4 (N = 2) % | 71.9 (N = 2) % | – | –
C[N+]1(C)CCCCC1CCN(c1nccs1)C1Cc2ccccc2C1.[I-] (stereo not shown) [Example 39, 1,1-dimethyl-2-[2-((indan-2-yl)(thiazol-2-yl)amino)ethyl]piperidinium iodide] | 10.6 | 11.3 (N = 2) % | – | 31.3 (N = 2) % | 62.4 (N = 2) % | – | –
Cc1ccccc1N(CCC1CCCC[N+]12CCOCC2)C1Cc2ccccc2C1.[Cl-] (stereo not shown) [Example 41, 7-[2-((indan-2-yl)(2-methylphenyl)amino)ethyl]-3-oxa-6-azaspiro[5.5]undecan-6-ium chloride] | 8.3 | – | 10 to 100 | – | – | – | –
CC[N+]1(CC)CCCCC1CN(c1ccc(C)cc1)C1Cc2ccccc2C1.[I-] (stereo not shown) [Example 30, 1,1-Diethyl-2-[((indan-2-yl)(4-methylphenyl)amino)methyl]piperidinium iodide] | 59.4 | 97.2 (N = 2) % | – | Insoluble | Insoluble | – | –
CCC[N+]1(CCC)CCCC[C@@H]1CCN(c1ccccc1)C1Cc2ccccc2C1.[I-] [Example 12, (R)-1,1-Dipropyl-2-[2-((indan-2-yl)(phenyl)amino)ethyl]piperidinium iodide] | – | – | – | – | – | 49 | 87 (N = 4, DMSO) %
C[N+]1(C)CCCCC1CCN(c1ccccn1)C1Cc2ccccc2C1.[I-] (stereo not shown) [Example 37, 1,1-dimethyl-2-[2-((indan-2-yl)(pyridine-2-yl)amino)ethyl]piperidinium iodide] | 21.5 | 60.7 (N = 2) % | 10 to 100 | 59.5 (N = 2) % | 24.0 (N = 2) % | – | –
Cc1ccccc1N(CC[C@H]1CCCC[N+]1(C)C)C1Cc2ccccc2C1 [Example 35, (R)-1,1-Dimethyl-2-[2-((indan-2-yl)(2-methylphenyl)amino)ethyl]piperidinium iodide] | – | – | 10 to 100 | – | – | – | –
Cc1cccc(N(CCC2CCCC[N+]2(C)C)C2Cc3ccccc3C2)c1.[I-] (stereo not shown) [Example 19, 1,1-Dimethyl-2-[2-((indan-2-yl)(3-methylphenyl)amino)ethyl]piperidinium iodide] | 0 | 87.9% | 10 to 100 | Insoluble | Insoluble | – | –
C[N+]1(C)CCCCC1CN(c1cccc(F)c1)C1Cc2ccccc2C1.[I-] (stereo not shown) [Example 31, 1,1-Dimethyl-2-[((3-fluorophenyl)(indan-2-yl)amino)methyl]piperidinium iodide] | 3.8 | 62.6 (N = 2) % | – | Insoluble | Insoluble | – | –
Cc1ccccc1N(CCC1CCCC[N+]1(C)C)C1Cc2ccccc2C1 (stereo not shown) [Example 50, 1,1-Dimethyl-2-[2-((indan-2-yl)(2-methylphenyl)amino)ethyl]piperidinium chloride] | – | – | 10 to 100 | – | – | – | –
C[N+]1(C)CCCC[C@H]1CN(c1ccccc1)C1Cc2ccccc2C1 [Example 32, (S)-1,1-Dimethyl-2-[((indan-2-yl)(phenyl)amino)methyl]piperidinium iodide] | – | – | 10 to 100 | – | – | – | –
